One may read the melting point as the temperature of the solid-liquid transition.

In turn, `CC(=O)NC(COCc1cc(C)cc(C)c1)Cc1cccc2ccccc12` (stereo not given) displayed a melting point of 119 to 120 °C.

In turn, `Cc1c(CCC(=O)O)c2cc(Br)ccc2n1Cc1ccc(Br)cc1` returned a melting point of 169 to 170 °C.

In turn, `CC(=O)c1c(SSc2c(C(C)=O)c3ccccc3n2C)n(C)c2ccccc12` had a melting point of 178 to 180 °C.

On to `COc1ccc(O)c(C2(CO)C(=O)N(Cc3ccc(C(F)(F)F)o3)c3ccc(F)cc32)n1` (stereo not given), for which the melting point fell in the range of 110 to 113 °C.

The compound `CC(C(=O)O)c1ccc2oc(Cc3ccc(F)cc3)nc2c1` (stereo not given) returned a melting point of 91 to 93 °C.

In turn, `Cc1cccc(OCCOc2cccc(C)c2)c1` showed a melting point of 98 °C.

Compound `O=c1oc(C(Cl)Cl)nc2c(C(F)(F)F)cccc12` showed a melting point of 179 °C.

The compound `COC(=O)CN(C(=O)CCCOc1ccc2c(c1)CN1CC(=O)NC1=N2)C1CCCCC1` gave a melting point of 185 to 186 °C.

`O=C(Nc1ccc(F)cc1)c1ccc(C2COC(c3c(F)cccc3F)=N2)cc1` (stereo not given) returned a melting point of 210 to 212 °C.

The compound `NC[C@H]1CCc2[nH]c3ccc(F)cc3c2C1` showed a melting point of 121 to 123 °C.

For `COc1ccccc1-c1nc(C)c(-c2cccnc2)n1O`, the melting point lay in the range of 105 to 120 °C.

`CC1(C)Oc2ccsc2C(N2CC(=O)NCC2=O)C1O` (stereo not given) yielded a melting point of 132 to 133 °C.

`Nc1ccc(F)c(O)c1`: the melting point was 156 to 157 °C.

For the compound `Cn1cc(S(C)(=O)=O)c(=O)c2sccc21`, the melting point fell in the range of 258 to 261 °C.

Turning to `CC1(C)CCC(C)(C)c2cc(N(CCCCOCc3ccccc3)C(=O)Nc3ccc(C(=O)O)cc3)ccc21`, the melting point was in the range of 158 to 162 °C.

`O=S(=O)(/C(=C\c1ccccc1)CO)c1ccccc1`: the melting point fell in the range of 67.5 to 69 °C.

For the compound `COc1cc(C(=O)N2Cc3ccccc3Cc3ccccc32)ccc1NC(=O)c1ccc(Cl)cc1Cl`, the melting point is 212 to 214 °C.

The compound `C=CCc1nc(SC)nc2ccccc12` registered a melting point of 133 to 135 °C.

`COC(=O)c1cc(OCc2cccc(Cl)c2)ccc1OCCCC#N` showed a melting point of 97 to 98 °C.

`c1ccc(CSc2cn3ccsc3n2)cc1` had a melting point of 76 to 77 °C.

With `CC(=O)c1ccc2c(c1)CCCN2C(=O)c1ccc(-c2ccc(Cl)cc2)cc1`, the melting point lay in the range of 149 to 151 °C.

Compound `CC(C)(C#N)c1cc(-n2cncc2C=O)cc(C(C)(C)C#N)c1` gave a melting point of 108 to 111 °C.

`CC(C#CC1CC(Oc2ccc(OC(F)(F)F)cc2)C1)N(O)C(N)=O` (single isomer, unassigned; (+)) displayed a melting point of 103 to 105 °C.

In turn, `O=c1[nH]c2cc(Cl)c(Cl)cc2[n+]([O-])c1-c1ccc(O)cc1` had a melting point of 276 to 278 °C.

Take `CCCCCOc1ccc(C(=O)Nc2ccc3cc(CN4CCCC4)cnc3c2C)cc1`: the melting point is 155 °C.

For `CN1CC(=O)Nc2cccc(Br)c2C1=O`, the melting point was 232 to 233 °C.

In turn, `Cc1nc(CNC(=O)c2ccnc(N3CCN(Cc4ccc(F)cc4)C3=O)c2)cs1` came in with a melting point of 76 to 78 °C.

In turn, `CCOC(=O)/C=C/c1cn(Cc2ccc(OCc3ccccc3)cc2)nc1-c1ccc(F)cc1` yielded a melting point of 113 to 114 °C.

Turning to `CC1(C)CC(OC(=O)CCl)CC(C)(C)N1OC1CCCCC1`, the melting point fell in the range of 62 to 64 °C.

`CC(C)Oc1ccc([N+](=O)[O-])cc1C(=O)O` showed a melting point of 124 to 125 °C.

Regarding `COC(=O)c1ccc(OCCNC(=O)C2Cc3ccccc3N2S(=O)(=O)c2ccc(-c3cc(C(F)(F)F)ccc3Cl)cc2)cc1C(F)(F)F` (stereo not given), the melting point worked out at 79 °C.

Consider `COc1ccc2c(c1)C(Cc1ccnc(F)c1)(Cc1ccnc(F)c1)c1ccccc1-2`, for which the melting point lay within 143 to 146 °C.

On to `CC1C(O)CCC2CC3(CCC21)OCCO3` (stereo not given), for which the melting point was in the range of 56 to 68 °C.

In the case of `CNC(=O)c1cccc2c(-c3ccccc3)c([N+](=O)[O-])oc12`, the melting point is 167 to 169 °C.

In turn, `NC(=O)c1ccnc(-c2cccc3cc(Cc4cc(F)cc(Cl)c4)sc23)c1` returned a melting point of 173 to 175 °C.

`COc1ccc(/C=C/S(=O)(=O)N(C)c2ccccc2)cc1` displayed a melting point of 126 to 129 °C.

The compound `O=C(OCCOc1ccc2ncnn2n1)C1CN(C(c2ccccc2)c2ccccc2)CCN1` (stereo not given) showed a melting point of 157 to 159 °C.

As to `Cc1ccccc1COC1COC(CCl)OC1` (stereo not given), the melting point lay within 62 to 63 °C.

`NC(=NCC(F)(F)F)Nc1ccnc(CCCCc2nc(O)n[nH]2)n1` yielded a melting point of 209 to 210 °C.

`COC(=O)c1cc(OCc2nc(-c3ccccc3)oc2C)no1`: the melting point was 123 to 124 °C.

`CCOC(OCC)c1cc(=O)[nH]c(N)n1` yielded a melting point of 198 to 203 °C.

Take `Cc1sc(CCc2ccc(CCCC3OC(=O)NC3=O)cc2)nc1-c1ccccc1` (stereo not given): the melting point lay within 111 to 112 °C.

The compound `CCNc1nc(-c2cccc([N+](=O)[O-])c2)c2cc(OC)c(OC)cc2n1` had a melting point of 164 to 166 °C.

Compound `O=C(Nc1ccc(O)c(C(=O)O)c1)OCc1ccccc1` had a melting point of 184 to 186 °C.

Compound `Cc1ccc(-c2ccc3c(c2)C=C(C(=O)Nc2ccc(CN(C(C)C)C(C)C)cc2)CCO3)cc1` showed a melting point of 152 to 153 °C.

As for `CC1(C)CC(=S)Nc2ccc(-c3cccc(Cl)c3)cc21`, the melting point lay in the range of 197 to 198 °C.

In turn, `CC(C)(CNCCCCCCNCC(C)(C)[N+](=O)[O-])[N+](=O)[O-]` registered a melting point of 26 to 27 °C.

Turning to `CC(C)(C)c1ccccc1COc1ccc(N)cn1`, the melting point was in the range of 147 to 149 °C.

`C(=C(c1ccccc1)N1CCCCC1)C1=NCCC1` registered a melting point of 123 to 124 °C.

Compound `CC1=C(C(=O)OC(C)C)C(c2cccc([N+](=O)[O-])c2)N(C(=O)OCc2ccccc2)C(=O)N1` (stereo not given) displayed a melting point of 158 to 159 °C.

Take `Cc1ccccc1-n1nc(-c2cccc(C(=O)O)c2)[nH]c1=O`: the melting point is over 310 °C.

As to `Cc1nc2cccc(N)c2s1`, the melting point lay in the range of 100 to 101 °C.

`Cc1nc2cccc(Cl)c2n1-c1ccccc1`: the melting point was 103 to 105 °C.

`CC1Cc2ccccc2NC1C1=NCCN1` (stereo not given): the melting point was 138 to 139 °C.

`CCCN1CCOc2cccc3nc4c(c1c23)CCCC4` showed a melting point of 74.5 to 75.5 °C.

Regarding `Cc1nc(-c2ccc(C(C)(C)C)cc2)sc1C(=O)O`, the melting point is 190 to 193 °C.

For the compound `N=C1NC(=O)C(Cc2ccc(OCCN3CCOCC3)cc2)S1` (stereo not given), the melting point fell in the range of 189 to 190 °C.

Consider `Fc1ccc(CSc2nnc(-c3ccc4c(c3)CCO4)o2)cc1C(F)(F)F`, for which the melting point fell in the range of 94 to 95 °C.

In turn, `CCCC1=C(C(=O)OCC)C(c2cccc3ccsc23)c2c[nH]nc2N1` (stereo not given) had a melting point of 166 °C.

As for `COC(=O)N(N=Nc1cc(C(F)(F)F)ccc1C#N)c1cc(C(F)(F)F)ccc1C#N`, the melting point lay within 88 to 90 °C.

Consider `NCCC(O)C(C(=O)O)N1CCC1=O` (stereo not given), for which the melting point is 152 to 154 °C.

In turn, `CCC(=O)NC1CCc2c([nH]c3ccccc23)C1` (stereo not given) had a melting point of 169 to 170 °C.

For `COc1ccc2cc(C(=O)C(C)O[Si](C)(C)C)ccc2c1` (stereo not given), the melting point is 72 to 75 °C.

Take `Nc1c2c(nc3ccccc13)CCc1cn(N)nc1-2`: the melting point was over 250 °C.

The compound `CONC(=O)C(Cl)=Cc1cc(-n2c(=O)cc(C(F)(F)F)n(C)c2=O)ccc1Cl` showed a melting point of 136 to 141 °C.

Regarding `O=C(O)CC(CC(=O)Nc1cc(OCC=C(Cl)Cl)c(Cl)cc1F)C(F)(F)F` (stereo not given), the melting point was 117 to 118 °C.

`CNc1nc(O)nc2c(Cl)cc(OC)c(OC)c12`: the melting point was in the range of 219 to 221 °C.

`Cc1nc2ccccc2c(=O)n1CCN1CCC(Nc2nc3ccccc3n2Cc2ccc(F)cc2)CC1` returned a melting point of 186 °C.

`Cc1cccc(-c2nc3cccnn3c2-c2ccnc(NC(=O)c3cccc(F)c3)c2)c1` came in with a melting point of 204 to 205 °C.

Compound `CC(C)OC(=O)Cc1nc(-c2ccc(Cl)cc2)oc1-c1ccco1` yielded a melting point of 96 to 97 °C.

Compound `Cc1cc2c(-c3cn(C)c(C(F)(F)F)cc3=O)c(F)cc(Cl)c2o1` showed a melting point of 208 to 211 °C.

As to `O=C1SC(Cc2ccc(OCCc3c[nH]c4ccccc34)cc2)C(=O)N1C(c1ccccc1)(c1ccccc1)c1ccccc1` (stereo not given), the melting point lay within 81 to 82.5 °C.

`Nc1ncc(-c2ccc3c(c2)CCC(NCC(F)(F)F)CC3)c(N)n1` (stereo not given) had a melting point of 154 to 156 °C.

With `COc1c(Cl)cc(NC(C)=O)c(OC)c1N`, the melting point amounted to 113 °C.

Turning to `COC(=O)Cc1ccccc1NC(=S)N(C)C`, the melting point is 110 to 113 °C.

Turning to `CCCCCCCCCCCCCCCCCCNC(=O)OCC(CNS(=O)(=O)CCCI)Oc1ccon1` (stereo not given), the melting point lay in the range of 69 to 71.5 °C.

Compound `CC(C)(C)OC(=O)NCc1ccc(C(=O)Nc2ccc(Nc3cc(-c4cccc5c4oc4ccccc45)ncn3)cc2)c(F)c1` displayed a melting point of 255 °C.

`CCN(CC)C(=O)C(=NNc1ccccc1)C(C)=O` registered a melting point of 63 to 65 °C.

`CCCCCc1nc(NC(=N)N)sc1-c1cccc([N+](=O)[O-])c1` gave a melting point of 135 to 137 °C.

Regarding `CN(C)S(=O)(=O)c1cc(-c2csc(=Nc3ccc(Cl)cc3)n2C)ccc1Cl`, the melting point came to 184 °C.

`CSc1ncc(Cc2cccs2)c(=O)[nH]1`: the melting point was 170 to 172 °C.

`O=C(O)COc1c(I)cc(C(=O)c2cccs2)cc1I`: the melting point amounted to 160 °C.

As for `CCOCc1nc2c(N)nc3ccccc3c2n1CCCON=C(C)C`, the melting point lay in the range of 109 to 111 °C.

In turn, `N#CC(=CNC1CC1)C(=O)c1ccc(Cl)cc1Cl` showed a melting point of 93 to 94 °C.

Regarding `Nc1ccc([N+](=O)[O-])cc1S(=O)(=O)N1CCOCC1`, the melting point was 204 to 206 °C.

Consider `Cc1cc(C)cc(Oc2nc(Cl)nc(Cl)c2C(C)C)c1`, for which the melting point lay within 107 to 108 °C.

`CCN1c2cc(C)c(C)cc2N(C)C(=O)c2cccnc21` yielded a melting point of 140 to 144 °C.

In turn, `CC(C)(C)NC(=O)C(C)(C)N(OC(c1ccccc1)c1ccccc1)C(C)(C)C` returned a melting point of 89 to 92 °C.

Take `CCOC(=O)c1c(N)n(C)c2ccccc12`: the melting point lay in the range of 132 to 134 °C.

For `CCC(C)(C)c1ccc(Oc2ccc(C(=O)c3ccc(Oc4ccc(C(C)(C)CC)cc4C(C)(C)CC)cc3)cc2)c(C(C)(C)CC)c1`, the melting point lay within 54 to 56 °C.

The record behind these values is a melting point compilation (Tetko et al.; mined from patent text by program, amines drawn as free bases though some values may be those of a salt).
